Results published in patent US11384371B2, “Hydroxylation of branched aliphatic or aromatic substrates employing the amycolatopsis lurida cytochrome P450” (HYPHA DISCOVERY LIMITED, priority 2016, dated 2022).

Columns and labels:
[1] = test system: P450aluC09; assay: Whole-cell biocatalysis (hydroxylation) by recombinant E. coli expressing P450aluC09 with redox partners; assay type: cell-based, Amycolatopsis lurida
Description: The recombinant expression strains E. coli BL21 Star (DE3) pLysS with pQR368bb-aluC09-aluF03 and E. coli BL21 Star (DE3) pLysS with p3C.1-AluC09-AluF03 were cultured in Terrific Broth media as in Example 5 and gene expression was induced by adding IPTG to reach the final concentration of 1 mM. The culture was supplemented with FeSO4 and 5′-aminolevulinic acid as in Example 5.
(§1) After four hours of incubation at 27° C. and 200 rpm, 2.5 mL of induced culture was dosed with 10 μL of either bosentan or diclofenac (25 mg/mL each) in a 24-well block (Enzyscreen). The whole-cell biocatalysis reaction was allowed to further incubate for 24 hours at 30° C. and 300 rpm. The reaction was stopped with an equal amount of acetonitrile and conversion assessed by UPLC-MS analysis in a similar manner to that described in Example 7.

[2] = test system: P450aluC09; assay: as above; assay type: cell-based, Amycolatopsis lurida; remark: listed apart in the source
[3] = test system: P450aluC09 fused in-frame with the reductase domain of P450BM3; assay: Whole-cell biocatalysis by E. coli expressing P450aluC09 fused with the reductase domain of P450BM3; assay type: cell-based, Amycolatopsis lurida / Bacillus megaterium; details: pET21a-AluC09_BM3, E. coli BL21 Star (DE3) pLysS
Description: as §1
The P450aluC09 was engineered to fuse in-frame to the reductase domain of P450BM3 from Bacillus megaterium in a similar manner described in Scheps et al. Microb Biotechnol. 2013; 6(6):694-707.
Whole-cell hydroxylating activity of E. coli BL21 Star (DE3) pLysS with either pQR368bb-aluC09-aluF03 or pET21a-AluC09_BM3 plasmid were compared against the substrates bosentan and diclofenac in a similar manner described in Example 10.

[4] = test system: P450aluC09; assay: Cell-free hydroxylase activity of lyophilised recombinant P450aluC09-ferredoxinaluF03-ferredoxin reductaseSCF15A, conversion by UPLC-MS; assay type: biochemical, Amycolatopsis lurida; details: 16-20 hours; for hydroxylase activity (conversion to hydroxylated product): 0.1 mg/ml substrate
Description: Lyophilised material of recombinant P450aluC09, ferredoxinaluF03 and ferredoxin reductaseSCF15A was made as described in examples 5 and 6 and suspended in water to a final concentration of 2.9 μM of P450aluC09 and 919 UN of ferredoxin reductaseSCF15A. […] 50 mM potassium phosphate pH 7.4, 5 mM MgCl2, 0.1 mg/ml substrate compound such as bosentan (CarboSynth Ltd, UK), buparvaquone (MedChemtronica, Sweden), BIRB796 (Stratech Scientific Limited, UK), diclofenac (Sigma-Aldrich, UK), epothilone B (LC Laboratories, USA) or ritonavir (TCI, UK), tivantinib (MedChemtronica, Sweden), 2.4 μM of P450AluC09, 767 UN of ferredoxin reductaseSCF15A, 5 mM G6P, 1 mM NADP, 2 UN/ml G6PDH in a final volume of 100 μL. After 16-20 hours, reactions were extracted with an equal volume of acetonitrile, centrifuged to remove precipitated proteins and conversion assessed by UPLC-MS analysis.
The method in Example 7 was followed except for the buffer exchange section. Four different buffers were chosen: a) 50 mM Acetate pH 5, 100 mM NaCl, 5 mM MgCl2; b) 50 mM potassium phosphate pH7.5, 5 mM MgCl2; c) 50 mM Tris pH 8, 100 mM NaCl, 5 mM MgCl2; d) 50 mM Piperidine pH11, 100 mM NaCl, 5 mM MgCl2. For each buffer condition 1.5 ml of resuspended lyophilised crude extract was exchanged using Vivaspin 20K cut off by performing 3 cycles of concentration and then dilution of the material with the new buffer. Exchanging in 50 mM potassium phosphate pH7.5, 5 mM MgCl2, the usual buffer for preparing and assessment of the enzyme preparations, provided the control for the robustness of the material during the buffer exchange process. […] Of particular note is the activity of this recombinant enzyme at such elevated pH values e.g., pH value of 11. […] Other advantages of catalysis at higher pH are the ability to directly utilise the product from a prior step resulting in such products, such as chemical synthesis, base-catalysed hydrolysis of a feedstock, or reaction product from another enzyme where increasing pH has been used to stop that reaction

[5] = Ampicillin resistant strain (pQR368bb-aluC09-aluF03), E. coli BL21 Star (DE3) pLysS
[6] = High copy number strain (p3C.1-AluC09-AluF03), E. coli BL21 Star (DE3) pLysS, 24 hours 30° C.
[7] = Medium copy number strain (pQR368bb-aluC09-aluF03), E. coli BL21 Star (DE3) pLysS, 24 hours 30° C.
[8] = Native ferredoxinaluF03 (p3C.1-AluC09-AluF03), E. coli BL21 Star (DE3) pLysS
[9] = ferredoxinaluF03 and ferredoxin reductaseSCF15A (pQR368bb-aluC09-aluF03), E. coli BL21 Star (DE3) pLysS, Table 7 comparison
[10] = host E. coli BL21 Star (DE3) pLysS, pQR368bb-aluC09-aluF03
[11] = Ferredoxinfd1 from S. griseus 11796 (p3C-AluC09), E. coli BL21 Star (DE3) pLysS
[12] = Kanamycin resistant strain (pHD02-AluC09-AluF03), E. coli BL21 Star (DE3) pLysS
[13] = host E. coli BL21 (DE3) pLysS, pQR368bb-aluC09-aluF03
[14] = host E. coli BL21 (DE3), pQR368bb-aluC09-aluF03
[15] = host E. coli BL21 Star (DE3), pQR368bb-aluC09-aluF03
[16] = pH values of 7.5 and above (pH 8-11)

Row | SMILES | % yield of parent-derived products [1, 5] | % yield of parent-derived products [1, 6] | % yield of parent-derived products [1, 7] | % yield of parent-derived products [1, 8] | % yield of parent-derived products [1, 9] | % yield of parent-derived products [1, 10] | % yield of parent-derived products [2, 11] | % yield of parent-derived products [2, 12] | % yield of parent-derived products [2, 13] | % yield of parent-derived products [2, 14] | % yield of parent-derived products [2, 15] | % yield of parent-derived products [3] | hydroxylase activity (conversion to hydroxylated product) ([4]; 10° C.) | hydroxylase activity (conversion to hydroxylated product) ([4]; 22° C.) | hydroxylase activity (conversion to hydroxylated product) ([4]; 27° C. (standard condition)) | hydroxylase activity (conversion to hydroxylated product) ([4]; 37° C.) | hydroxylase activity on the substrate at reaction pH ([4]; pH5 (50 mM Acetate)) | hydroxylase activity on the substrate at reaction pH [4, 16] | other results
1 | COc1ccccc1Oc1c(NS(=O)(=O)c2ccc(C(C)(C)CO)cc2)nc(-c2ncccn2)nc1OCCO [HO-Bosentan] | 26.6% | 18.2% | 52.6% | 52.6% | 29.5% | 26.6% | 6.3% | 41.6% | 34.1% | 13.6% | 9.1% | 9.3% | 91% | 64% | 86% | 33% |  |  | % yield of parent-derived products ([2]; Ferredoxin reductasecamA and ferredoxincamB from P. putida (pHD02-AluC09-PdR-PdX), E. coli BL21 (DE3)): 21.2%; % yield of parent-derived products ([2]; ferredoxinaluF03 and ferredoxin reductaseSCF15A (pHD02-AluC09-AluF03), E. coli BL21 (DE3)): 27.4%; hydroxylase activity (conversion to hydroxylated product) ([4]; 45° C.): 19%
2 | O=C(O)Cc1cc(O)ccc1Nc1c(Cl)cccc1Cl [5-HO-Diclofenac, 5-hydroxydiclofenac] | 35.2% | 23.8% | 60.3% | 23.8% | 12.4% | 35.2% | 4.2% | 48.1% | 45.1% | 10.3% | 6.5% | <1% | 17% | 14% | 12% | 1% |  |  | 
3 | O=C(O)Cc1ccccc1Nc1c(Cl)cccc1Cl [diclofenac, reference compound] |  |  |  |  |  |  |  |  |  |  |  |  |  |  |  |  | only barely detectable | remain | 
4 | O=C(O)Cc1ccccc1Nc1c(Cl)cc(O)cc1Cl [4′-HO-Diclofenac, 4′-hydroxydiclofenac] | 7.5% | 8.7% | 27.4% | 60.3% | 46.0% | 7.5% | 11.5% | 6.0% | 11.3% | >1% | 1.5% | 4.7% | 14% | 16% | 21% | 13% |  |  | 
5 | CC(C)[C@H](NC(=O)N(C)Cc1csc(C(C)(C)O)n1)C(=O)N[C@@H](Cc1ccccc1)C[C@H](O)[C@H](Cc1ccccc1)NC(=O)OCc1cncs1 [ε-HO-Ritonavir, ε-HO—N-methylisopropylthiazoloylmethyl-ritonavir] |  |  |  |  |  |  |  |  |  |  |  |  | 36% | 36% | 34% | 19% |  |  | 
6 | COc1ccccc1Oc1c(NS(=O)(=O)c2ccc(C(C)(C)C)cc2)nc(-c2ncccn2)nc1OCCO [bosentan, reference compound] |  |  |  |  |  |  |  |  |  |  |  |  |  |  |  |  | only barely detectable | remain | 
